pEC50, pIC50: −log10 of the molar value.
Key:
[1] = tested on: M-07e cells which endogenously express human c-KIT; assay: M-07e cellular assay: SCF-mediated cell proliferation (CellTiter Glo); type: cell-based; settings: 72 h, SCF-mediated proliferation of M-07e cells
Protocol: M-07e cells (Creative Bioarray, CSC-C0249) which endogenously express human c-KIT were used to evaluate the effect of compounds on stem cell factor (SCF)-mediated cell proliferation. M-07e cells were cultured in growth media (RPMI+10% FBS+1% penicillin/streptomycin+10 ng/mL GM-CSF) at 5E5-1.5E6 cells/mL, replenishing media every 3-4 days. 1.5E4 cells were seeded per well in 384 well tissue culture treated plates in […] assay media (RPMI+10% FBS+1% penicillin/streptomycin) without growth factor stimulation and incubated at 37° C. in a CO2 humidity-controlled incubator. Twenty-four hours later, three-fold serially diluted test compounds in media containing SCF (at the previously determined EC90) were added to the plated M-07e cells and incubated for an additional 72 hours. Cell viability was determined by adding 25 μL CellTiter Glo (Promega) to the cells and the luminescence was measured using a Perkin Elmer Envision plate reader. The EC50 was determined using GraphPad Prism. Percent cell growth was determined after normalizing the curve to the mean RLU high control (no compound control wells) at 100% and the mean RLU low control (no SCF control wells) at 0%.

[2] = target: T1, Recombinant human c-KIT kinase (Homo sapiens, UniProt P10721); assay: c-KIT kinase chemiluminescence assay (ADP-Glo); type: biochemical; settings: ATP 50 μM
T1 construct: purchased Promega V4498
T1 sequence (P10721 544-976 limits assumed): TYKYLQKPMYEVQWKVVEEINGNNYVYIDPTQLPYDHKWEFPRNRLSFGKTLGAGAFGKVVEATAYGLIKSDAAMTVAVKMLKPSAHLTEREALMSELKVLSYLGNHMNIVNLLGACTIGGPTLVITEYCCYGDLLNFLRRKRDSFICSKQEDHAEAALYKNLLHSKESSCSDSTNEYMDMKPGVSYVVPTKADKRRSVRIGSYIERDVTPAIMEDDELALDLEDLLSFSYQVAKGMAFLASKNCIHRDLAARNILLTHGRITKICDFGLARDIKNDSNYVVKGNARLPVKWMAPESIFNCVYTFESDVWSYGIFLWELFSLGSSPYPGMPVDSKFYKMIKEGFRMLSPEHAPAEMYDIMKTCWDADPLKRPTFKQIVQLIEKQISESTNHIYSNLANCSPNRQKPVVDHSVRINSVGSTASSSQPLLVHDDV
Protocol: The c-KIT Kinase Enzyme System (V4498) and ADP-Glo™ Kinase Assay kit (V6930) were purchased from Promega (Madison, WI). DMSO (D2650) was purchased from Sigma-Aldrich (Burlington, MA).
c-KIT Kinase Chemiluminescence Assay:
Kinase Reaction: The kinase assay was based on the recommended protocol by c-KIT Kinase Enzyme System from Promega. Recombinant human c-KIT kinase in 3 μL of assay buffer (40 mM Tris pH 7.5, 20 mM MgCl2, 0.1 mg/mL BSA and 50 μM DTT) was added to the test or high control wells and 3 μL of assay buffer was added to the low control wells. The microplate was centrifuged at 800 rotations per minute (rpm) for 60 s and incubated at room temperature (RT) for 30 min. Next, 2 μL of buffered ATP and polyEY substrate solution was added to all wells. The microplate was centrifuged at 800 rpm for 60 s and incubated at RT for 2 h.
ADP detection with ADP-Glo™ Kinase Assay: After the kinase reaction incubation, 5 μL of ADP-Glo™ reagent was added to all wells. The microplate was centrifuged at 800 rpm for 60 s and incubated at RT for 40 min. Ten microliter (10 μL) of Kinase Detection Reagent (Luciferin-Luciferase system) was then added to all wells. The microplate was centrifuged at 800 rpm for 60 s and incubated at RT for 60 min. Kinase activity was measured as an increase in luminescence at RT in an Envision plate reader equipped with 560 nm filters and operating in endpoint mode.
Data Analysis: Endpoint chemiluminescence from high and low control wells were used to calculate normalized c-KIT activity at various concentrations of test compounds. The normalized activities were fitted to inhibitor-versus-normalized response fit in GraphPad Prism 7 to determine half-maximal inhibitory concentration (IC50) and hill coefficient values (H).
Where I is the inhibitor concentration and H is the Hill coefficient.

SMILES	pIC50 [2]	pEC50 [1]
Cc1ccc(-c2noc([C@H]3C[C@@H](OC(F)F)C3)n2)cc1NC(=O)c1cnn2ccc(N3CC4(COC4)C3)cc12 [Example 242]	–	> 7.00
Cc1ccc(-c2noc([C@H]3C[C@@H]3F)n2)cc1NC(=O)c1cnc2cccnn12 [Example 16]	< 6.00	–
Cc1ccc(-c2noc(C3C[C@@H]3F)n2)cc1NC(=O)c1cnc(-c2cnc(N3CC(O)(C(F)(F)F)C3)nc2)o1 (stereo partly drawn) [Example 402]	< 6.00	6.00 to 7.00
Cc1ccc(-c2noc(C3C[C@@H]3C(F)F)n2)cc1NC(=O)c1ccc(N)nc1 (stereo partly drawn) [Example 400]	< 6.00	< 6.00
Cc1nc(N)nc(C)c1-c1ccn2ncc(C(=O)Nc3cc(-c4noc([C@H]5C[C@@H]5F)n4)sc3C)c2c1 [Example 370]	< 6.00	–
Cc1nn(-c2ccc(C3CC3)cc2)cc1NC(=O)c1cnn2ccc(N3CC4(COC4)C3)cc12 [Example 372]	< 6.00	–
Cc1ncc(-c2nnn[nH]2)cc1NC(=O)c1cnn2ccc(N3CC4(C3)CC(O)(C(F)F)C4)cc12 [Example 394]	< 6.00	< 6.00
Cc1ccc(-c2noc([C@H]3C[C@@H]3F)n2)cc1NC(=O)c1ccc(N)nc1 [Example 397]	< 6.00	< 6.00
Cc1nc(N)nc(C)c1-c1ccn2ncc(C(=O)Nc3cc(-c4noc([C@H]5C[C@@H](OC(F)(F)F)C5)n4)sc3C)c2c1 [Example 368]	< 6.00	–
Cc1ccc(-c2noc([C@H]3C[C@@H]3F)n2)cc1NC(=O)c1cnc(-c2cnc(N)nc2)o1 [Example 308-64]	< 6.00	–
Cc1nc(N)nc(C)c1-c1ccn2ncc(C(=O)Nc3cc(-c4noc(C5CN(C(=O)OC(C)(C)C)C5)n4)sc3C)c2c1 [Example 369]	< 6.00	–
Cc1ccc(-c2noc([C@H]3C[C@@H]3F)n2)cc1NC(=O)c1cnc(N2CC(C(=O)O)C2)s1 [Example 98-4]	–	< 6.00
O=C(Nc1cc(-c2ncc(C3CC3)cn2)ccc1C(F)F)c1cnn2ccc(Br)cc12 [Example 392]	< 6.00	< 6.00
Cc1nc(N)nc(C)c1-c1ccn2ncc(C(=O)Nc3cc(-c4noc(C5CN(C(=O)[C@H]6C[C@@H]6F)C5)n4)sc3C)c2c1 [Example 371]	< 6.00	–
Cc1ccc(-c2noc(C3C[C@@H]3F)n2)cc1NC(=O)c1ccc(NC(=O)OC(C)(C)C)nc1 (stereo partly drawn) [Example 396]	< 6.00	< 6.00
Cc1ccc(-c2noc([C@H]3C[C@@H]3F)n2)cc1NC(=O)c1cnn2cc(-c3cn(C(F)F)nn3)ccc12 [Example 107]	–	> 7.00
C#Cc1ccc2c(C(=O)Nc3cc(-c4noc([C@H]5C[C@@H]5F)n4)ccc3C)cnn2c1 [Example 106]	–	> 7.00
Cc1ccc(-c2noc(C3C[C@@H]3C(F)F)n2)cc1NC(=O)c1ccc(NC(=O)OC(C)(C)C)nc1 (stereo partly drawn) [Example 398]	< 6.00	< 6.00
Cc1ccc(-c2nc([C@H]3C[C@@H]3F)cs2)cc1NC(=O)c1cnn2ccc(N3CC4(COC4)C3)cc12 [Example 309]	> 7.00	–
Cc1ncc(-c2nnn(CCO)n2)cc1NC(=O)c1cnn2ccc(N3CC4(C3)CC(O)(C(F)F)C4)cc12 [Example 387]	< 6.00	< 6.00
Cc1ncc(-c2noc(N3CC(O)(C(F)(F)F)C3)n2)cc1NC(=O)c1cnn2ccc(N3CC4(C3)CC(O)(C(F)F)C4)cc12 [Example 389]	< 6.00	< 6.00
Cc1ncc(-c2noc(C3C[C@@H]3C(F)F)n2)cc1NC(=O)c1ccc(NC(=O)OC(C)(C)C)nc1 (stereo partly drawn) [Example 399]	< 6.00	< 6.00
Cc1ncc(-c2nnn(C3CC3)n2)cc1NC(=O)c1cnn2ccc(N3CC4(C3)CC(O)(C(F)F)C4)cc12 [Example 403]	6.00 to 7.00	> 7.00
O=C(Nc1cn(-c2ccc(C3CC3)cc2)nc1C(F)F)c1cnn2ccc(N3CC4(COC4)C3)cc12 [compound 373]	–	< 6.00
Cc1ncc(-c2ncc(OC(F)(F)F)cn2)cc1NC(=O)c1cnn2ccc(-c3c(C)nc(N)nc3C)cc12 [Example 364]	< 6.00	–

More lines, main results first:

pIC50 [2]	SMILES	pEC50 [1]
6.00 to 7.00	CCn1nnc(-c2cnc(C)c(NC(=O)c3cnn4ccc(N5CC6(C5)CC(O)(C(F)F)C6)cc34)c2)n1 [Example 382]	> 7.00
> 7.00	Cc1ncc(-c2ccn3ncc(C(=O)Nc4cc(-c5noc([C@H]6C[C@@H]6F)n5)ccc4C)c3c2)c(C)n1 [Example 168]	–
6.00 to 7.00	Cc1ncc(-c2nnc(C3C[C@@H]3F)o2)cc1NC(=O)c1cnn2ccc(N3CC4(C3)CC(O)(C(F)F)C4)cc12 (stereo partly drawn) [Example 404]	6.00 to 7.00
6.00 to 7.00	Cc1ncc(-c2nnn(CCC(F)(F)F)n2)cc1NC(=O)c1cnn2ccc(N3CC4(C3)CC(O)(C(F)F)C4)cc12 [Example 384]	> 7.00
> 7.00	Cc1ncc(-c2noc(C3CC(OC(F)F)C3)n2)cc1NC(=O)c1cnn2ccc(N3CC4(C3)CC(O)(C(F)F)C4)cc12 (stereo not drawn) [Example 281-44]	> 7.00
6.00 to 7.00	Cc1ncc(-c2ncc(OC(F)(F)F)cn2)cc1NC(=O)c1cnn2ccc(N3CC4(C3)CC(O)(C(F)F)C4)cc12 [Example 313]	> 7.00
6.00 to 7.00	Cc1ccc(-c2noc([C@H]3C[C@@H]3C(F)F)n2)cc1NC(=O)c1cnn2ccc(-c3c(C)nc(N)nc3C)cc12 [Example 390]	6.00 to 7.00
6.00 to 7.00	COCCn1nnc(-c2cnc(C)c(NC(=O)c3cnn4ccc(N5CC6(C5)CC(O)(C(F)F)C6)cc34)c2)n1 [Example 386]	6.00 to 7.00
> 7.00	COCCn1nc(C)c(-c2ccc3c(C(=O)Nc4cc(-c5noc([C@H]6C[C@@H]6F)n5)ccc4C)cnn3c2)c1C [Example 147]	> 7.00
6.00 to 7.00	Cc1ncc(-c2noc([C@H]3C[C@@H]3F)n2)cc1NC(=O)c1cnc(-c2ccc3c(c2)c(C)nn3CC(C)(C)O)o1 [Example 22a]	> 7.00
6.00 to 7.00	O=C(Nc1cc(-c2ncc(C3CC3)cn2)ccc1C(F)F)c1cnn2ccc(N3CC4(C3)CC(O)(C(F)F)C4)cc12 [Example 393]	> 7.00
> 7.00	Cc1ncc(-c2nnn(C3CCC(F)(F)CC3)n2)cc1NC(=O)c1cnn2ccc(N3CC4(C3)CC(O)(C(F)F)C4)cc12 [Example 385]	> 7.00
> 7.00	COC(=O)N1CC(c2nc(-c3cc(NC(=O)c4cnn5ccc(N6CC7(C6)CC(O)(C(F)F)C7)cc45)c(C)s3)no2)C1 [Example 388]	> 7.00
6.00 to 7.00	Cc1ncc(-c2nnc(C3C[C@@H]3F)s2)cc1NC(=O)c1cnn2ccc(N3CC4(C3)CC(O)(C(F)F)C4)cc12 (stereo partly drawn) [Example 407]	> 7.00
6.00 to 7.00	Cc1ncc(-c2nnn(C[C@H](O)C(F)(F)F)n2)cc1NC(=O)c1cnn2ccc(N3CC4(C3)CC(O)(C(F)F)C4)cc12 [Example 380]	6.00 to 7.00
6.00 to 7.00	Cc1ncc(-c2nnn(C[C@@H](O)C(F)F)n2)cc1NC(=O)c1cnn2ccc(N3CC4(C3)CC(O)(C(F)F)C4)cc12 [Example 379]	6.00 to 7.00
6.00 to 7.00	Cc1ncc(-c2nnn(C[C@H](O)C(F)F)n2)cc1NC(=O)c1cnn2ccc(N3CC4(C3)CC(O)(C(F)F)C4)cc12 [Example 378]	6.00 to 7.00
6.00 to 7.00	Cc1cc(F)c(-c2noc(C3CC(OC(F)F)C3)n2)cc1NC(=O)c1cnn2ccc(N3CC4(COC4)C3)cc12 (stereo not drawn) [Example 281-58]	6.00 to 7.00
6.00 to 7.00	Cc1ncc(-c2nc([C@H]3C[C@@H]3F)cs2)cc1NC(=O)c1cnn2ccc(N3CC4(C3)CC(O)(C(F)F)C4)cc12 [Example 405]	> 7.00
6.00 to 7.00	Cc1ncc(-c2noc(C3CC(OC(F)F)C3)n2)cc1NC(=O)c1cnn2ccc(N3CC4(C3)CC(O)(C(F)(F)F)C4)cc12 (stereo not drawn) [Example 281-40]	> 7.00
> 7.00	Cc1ccc(-c2noc([C@H]3C[C@@H]3F)n2)cc1NC(=O)c1cnc2n1Cc1ccccc1-2 [Example 99]	–
6.00 to 7.00	Cc1ncc(-c2nnn(C[C@@H](O)C(F)(F)F)n2)cc1NC(=O)c1cnn2ccc(N3CC4(C3)CC(O)(C(F)F)C4)cc12 [Example 381]	6.00 to 7.00

Reference: patent publication US20250304600A1, “PHARMACEUTICAL COMPOUNDS AND COMPOSITIONS AS c-KIT KINASE INHIBITORS” (Enanta Pharmaceuticals, Inc., priority 2023, published 2025)
